“Also recorded” adds a separate entry of the source.
How the values were obtained:
healthy male volunteers [1] = assay: Area of dynamic mechanical hyperalgesia after intradermal capsaicin (cotton wool stroking); type: in vivo, human; conditions: single oral dose (clobazam 20 mg, clonazepam 1 mg, tolterodine 1 mg), mean (SD)
Procedure: The area of dynamic mechanical hyperalgesia was determined by gently stroking a hand-held cotton wool tip on a 1 cm strip of the skin, at a rate of approximately 1 cm/s. Subjects were asked to report when the sensation changed from a non-painful to a painful sensation. The borders of dynamic hyperalgesia were delineated similarly to the determination of static hyperalgesia.

healthy male volunteers [2] = assay: Intramuscular repeated (5 stimuli) electrical stimulation pain threshold; type: in vivo, human; conditions: for Pain threshold after 5 intramuscular electrical stimuli: mean (SD); for Change in pain threshold after 5 intramuscular electrical stimuli between baseline and 120 minutes: main analysis, pairwise multiple comparison
Text: The stimulus burst used for single stimulus was repeated 5 times at 2 Hz, at constant intensity. The current intensity of the 5 stimuli was increased from 1 mA in steps of 0.5 mA until the subjects felt pain during the last 2–3 of the 5 stimuli (indicating temporal summation).
A needle was placed in the tibialis anterior muscle, 14 cm distal from the caudal end of the patella and 20 mm in depth. The same single and repeated stimulation patterns and the same procedure described for cutaneous stimulation were used.

healthy male volunteers [3] = assay: Pain rating (VAS) after graded von Frey hair stimulation in the capsaicin hyperalgesic area; type: in vivo, human; conditions: VAS 0-10, single oral dose (clobazam 20 mg, clonazepam 1 mg, tolterodine 1 mg), mean (SD)
Procedure: Additionally, mechanical pain sensitivity was assessed using a set of seven weighted pinprick stimuli to obtain a stimulus-response function. The test was applied 1 cm inside the outer border of the pinprick hyperalgesic area, using a set of 7 graded von Frey hair mechanical stimulators with fixed stimulus intensities (custom-made at Aalborg University, Denmark). The flat contact area of the stimulators has a 0.2 mm diameter, and the 7 stimulators exert forces of 8, 16, 32, 64, 128, 256 and 512 mN. The order of stimulation was defined randomly by computer. The stimulators were applied at a rate of 2 s on/2 s off. Subjects were asked to give a pain rating for each stimulus on a 10 cm VAS. Two assessments for each stimulation were made and the mean of these 2 measurements was used for the data analysis.

patients / volunteers = conditions: ref Micromedex 2009; cited from earlier work
healthy male volunteers [4] = assay: Area of static hyperalgesia after intradermal capsaicin injection (512 mN von Frey hair); type: in vivo, human; conditions: for Area of static hyperalgesia: single oral dose (clobazam 20 mg, clonazepam 1 mg, tolterodine 1 mg), mean (SD)
Text: Intradermal injection of capsaicin causes a brief stinging/burning pain at the injection site followed by development of secondary hyperalgesia, i.e. hyperalgesia detected at surrounding (not injected) skin [15], [16]. Secondary hyperalgesia after intradermal capsaicin is the result of sensitization of the central nervous system, which is one of the most relevant aspects of neuroplastic changes. This model was sensitive to the action of GABAergic compounds in animal studies.
The capsaicin solution was prepared by the Hospital Pharmacy and underwent sterile filtration into sterile septum-sealed vials. The sterile solution (1 mg/ml) was placed into sterile syringes and used for intradermal injection at room temperature. The skin temperature was measured using a digital thermometer, and was 32°C+/−1 in all subjects.
Subjects remained semi-supine during the experiment. Before capsaicin injection, the skin of the forearm was cleaned using an antiseptic wipe and allowed to air dry. The injection site was marked midway between the elbow and the wrist. Using a surgical skin marker, 4 lines were drawn through the injection site, so that they intersected the corners of a regular octagon (figure 2). These lines were marked every 0.5 cm from the center to the edges using a predefined grid. […] We determined the area of hyperalgesia by adding the areas of each triangle in which hyperalgesia was recorded.
Using a 1-ml tuberculin syringe fitted with a 27-gauge disposable needle, 100 µl capsaicin were injected […] into the skin, at the intersection of the 4 vectors previously drawn. A white skin elevation appeared during injection ensuring correct injection.
Static mechanical hyperalgesia was judged to be present when the subjects reported that applying a 512 mN von Frey Hair, 5 and 30 minutes after capsaicin injection, elicited pain with an intensity of at least 4 using a numerical rating scale (NRS, whereby 0 = no pain and 10 = worst pain). Only these subjects were included in the study. In order to document pain induction, the subject recorded pain intensity at injection and 5 minutes post-injection using a 10 cm visual analogue pain scale (VAS), whereby 0 = no pain and 10 = worst pain imaginable.
The area of secondary hyperalgesia was assessed using a calibrated 512 mN von Frey hair. The punctuated probe was moved along the 8 radial lines defined above, starting approximately 6 cm away from the site of injection, at each mark in steps of 0.5 cm. The weighted von Frey hair was placed gently on the skin and the load was applied for 2 seconds. The volunteers were asked to report when the pricking sensation changed to a pain sensation. At least 4 seconds elapsed between consecutive stimuli. This procedure was repeated for each vector. The number corresponding to the marker at which sensation changes as described above was noted and the individual numbers were used to calculate the area of hyperalgesia.
The flow of the experiment is illustrated in figure 3. After training, basal values for the pain tests were determined. The study medication was given immediately after the intradermal injection of capsaicin. Thus, basal values were recorded for all tests, except for those related to capsaicin injection. Because of the relatively short duration of hyperalgesia induced by capsaicin, the recordings of basal values before drug administration would yield a too short testing procedure.

## Cc1ccc(O)c([C@H](CCN(C(C)C)C(C)C)c2ccccc2)c1 [Tolterodine]
Healthy male volunteers [1]; 30 min after medication
  Area of dynamic hyperalgesia: 20.3 (11.6) cm^2
Healthy male volunteers [1]; 60 min after medication
  Area of dynamic hyperalgesia: 23.3 (09.0) cm^2
Healthy male volunteers [1]; 90 min after medication
  Area of dynamic hyperalgesia: 23.1 (11.3) cm^2
Healthy male volunteers [1]; 120 min after medication
  Area of dynamic hyperalgesia: 23.3 (09.1) cm^2
Healthy male volunteers [1]; after flumazenil 0.2 mg iv
  Area of dynamic hyperalgesia: 24.7 (14.6) cm^2
Healthy male volunteers [2]; baseline before medication, per drug session
  Pain threshold after 5 intramuscular electrical stimuli: 1.6 (1.2) mA
Healthy male volunteers [2]
  Change in pain threshold after 5 intramuscular electrical stimuli between baseline and 120 minutes: not
Healthy male volunteers [2]; listed as tolterodine
  Change in pain threshold after 5 intramuscular electrical stimuli between baseline and 120 minutes: no statistically significant change
Healthy male volunteers [2]; peak value analysis, pairwise comparisons within each drug
  Change in pain detection threshold after 5 intramuscular electrical stimuli from baseline to peak value: not
Healthy male volunteers [2]; single oral dose (clobazam 20 mg, clonazepam 1 mg, tolterodine 1 mg), 120 min after medication
  Pain threshold after 5 intramuscular electrical stimuli: 1.9 (1.2) mA
Healthy male volunteers [2]; single oral dose (clobazam 20 mg, clonazepam 1 mg, tolterodine 1 mg), after flumazenil 0.2 mg iv
  Pain threshold after 5 intramuscular electrical stimuli: 2.2 (1.5) mA
Healthy male volunteers [3]; 30 min after medication
  VAS after von Frey hair 8 mN: 1.3 (1.5)
  VAS after von Frey hair 16 mN: 1.7 (1.8)
  VAS after von Frey hair 32 mN: 2.5 (1.9)
  VAS after von Frey hair 64 mN: 3.2 (2.3)
  VAS after von Frey hair 128 mN: 3.4 (2.2)
  VAS after von Frey hair 256 mN: 4.2 (2.1)
  VAS after von Frey hair 512 mN: 4.9 (2.0)
Healthy male volunteers [3]; 60 min after medication
  VAS after von Frey hair 8 mN: 1.2 (1.3)
  VAS after von Frey hair 16 mN: 1.9 (1.9)
  VAS after von Frey hair 32 mN: 2.7 (2.2)
  VAS after von Frey hair 64 mN: 2.9 (1.8)
  VAS after von Frey hair 128 mN: 3.5 (2.2)
  VAS after von Frey hair 256 mN: 4.2 (2.1)
  VAS after von Frey hair 512 mN: 5.2 (2.0)
Healthy male volunteers [3]; 90 min after medication
  VAS after von Frey hair 8 mN: 1.2 (1.4)
  VAS after von Frey hair 16 mN: 1.6 (1.9)
  VAS after von Frey hair 32 mN: 2.2 (1.4)
  VAS after von Frey hair 64 mN: 2.8 (2.0)
  VAS after von Frey hair 128 mN: 3.1 (2.0)
  VAS after von Frey hair 256 mN: 4.2 (2.0)
  VAS after von Frey hair 512 mN: 4.9 (2.1)
Healthy male volunteers [3]; 120 min after medication
  VAS after von Frey hair 8 mN: 1.0 (0.9)
  VAS after von Frey hair 16 mN: 1.4 (1.3)
  VAS after von Frey hair 32 mN: 1.9 (1.3)
  VAS after von Frey hair 64 mN: 2.3 (1.5)
  VAS after von Frey hair 128 mN: 2.9 (2.0)
  VAS after von Frey hair 256 mN: 4.1 (2.5)
  VAS after von Frey hair 512 mN: 4.8 (2.2)
Healthy male volunteers [3]; after flumazenil 0.2 mg iv
  VAS after von Frey hair 8 mN: 1.1 (1.2)
  VAS after von Frey hair 16 mN: 1.1 (0.9)
  VAS after von Frey hair 32 mN: 2.1 (1.6)
  VAS after von Frey hair 64 mN: 2.6 (1.7)
  VAS after von Frey hair 128 mN: 2.6 (1.5)
  VAS after von Frey hair 256 mN: 4.1(1.7)
  VAS after von Frey hair 512 mN: 5.0 (2.2)
Patients / volunteers
  Dizziness, expected side effect frequency: 2%
  Somnolence, expected side effect frequency: 3%
Healthy male volunteers [4]; main analysis, pairwise multiple comparisons within each drug
  Change in the area of static hyperalgesia over time: significantly increased; also recorded: Significant increase in the area of hyperalgesia only for tolterodine
Healthy male volunteers [4]; 30 min after medication
  Area of static hyperalgesia: 36.3 (10.6) cm^2
Healthy male volunteers [4]; 60 min after medication
  Area of static hyperalgesia: 40.6 (11.5) cm^2
Healthy male volunteers [4]; 90 min after medication
  Area of static hyperalgesia: 43.8 (11.9) cm^2
Healthy male volunteers [4]; 120 min after medication
  Area of static hyperalgesia: 44.7 (10.9) cm^2
Healthy male volunteers [4]; after flumazenil 0.2 mg iv
  Area of static hyperalgesia: 47.6 (13.7) cm^2

Reference: article PMC3598812, “Evaluation of Anti-Hyperalgesic and Analgesic Effects of Two Benzodiazepines in Human Experimental Pain: A Randomized Placebo-Controlled Study” (PLoS ONE, 2013)
